According to patent publication US20100105729A1, “ARYL-SUBSTITUTED HETEROCYCLIC PDE4 INHIBITORS AS ANTI-INFLAMMATORY AGENTS” (KALYPSYS, INC., priority 2006, published 2010):

Biological target: T1, PDE4B (Homo sapiens, UniProt Q07343)
T1 construct: hexa-histidine (His6) (N); made in house
Test: PDE4 IMAP Assay
Type: biochemical
Conditions: catalytic domain of PDE4B, fluorescence polarization
From the text: Compounds may be screened for functional potency in in vitro biochemical assays for their ability to inhibit the activity of phosphodiesterase (PDE) enzymes. A commercial PDE assay, Molecular Device's PDE IMAP assay, was modified and utilized to measure the inhibitory activity of compounds on PDE isoforms. The IMAP technology is based on the high affinity binding of phosphate by immobilized metal (MIII) coordination complexes on nanoparticles. This IMAP “binding reagent” complexes with phosphate groups on the nucleotide monophosphates generated in the reaction. Such binding causes a change in the rate of the molecular motion of the nucleotide, and results in an increase in the fluorescence polarization value observed for the fluorescent label attached to the substrate. PDE inhibitors prevent the generation of nucleotide monophosphates and the subsequent increase in polarization value observed for the fluorescent label attached to the substrate. The catalytic domain of PDE4B was fused to an amino-terminus hex-histadine affinity tag and purified. PDE4B enzyme was incubated with compounds for 10 minutes. Fluorescently labeled cyclic AMP substrates were then added to the PDE enzyme mix and incubated for 2 hours at room temperature. IMAP binding reagent was then added to the enzyme mix, incubated for 10-30 minutes and fluorescent polarization of the fluorescently labeled substrate was read either with the Perkin Elmer Viewlux or Molecular Devices Acquest or Analyst. Roflumilast and Rolipram are the positive controls used in the assay.

T1 sequence (Q07343 330-659 limits assumed, species assumed): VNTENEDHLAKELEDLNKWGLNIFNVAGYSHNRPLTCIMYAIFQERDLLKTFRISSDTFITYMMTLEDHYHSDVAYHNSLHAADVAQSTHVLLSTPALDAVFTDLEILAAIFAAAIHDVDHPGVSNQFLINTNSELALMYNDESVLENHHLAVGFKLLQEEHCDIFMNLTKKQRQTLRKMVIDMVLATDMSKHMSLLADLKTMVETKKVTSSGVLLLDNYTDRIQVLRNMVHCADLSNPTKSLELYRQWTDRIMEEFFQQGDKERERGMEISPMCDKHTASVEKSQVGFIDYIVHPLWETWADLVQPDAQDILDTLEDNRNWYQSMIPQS

| SMILES | inhibition at 10 µM [%] |
| --- | --- |
| COc1ccc(C2=NN(C(=O)c3ccc(Br)o3)C(c3cccc(OC)c3OC)C2)cc1OC (centres unmarked) [Example 84, (5-bromofuran-2-yl)(5-(2,3-dimethoxyphenyl)-3-(3,4-dimethoxyphenyl)-4,5-dihydro-1H-pyrazol-1-yl)methanone] | < 50 |
| COc1ccc(C2=NN(C(C)=O)C(c3ccccc3OC)C2)cc1OC (centres unmarked) [Example 105, 1-(3-(3,4-dimethoxyphenyl)-5-(2-methoxyphenyl)-4,5-dihydro-1H-pyrazol-1-yl)ethanone] | < 50 |
| COc1ccc(C2=NN(C(C)=O)C(c3cn(-c4ccccc4)nc3-c3ccccc3)C2)cc1OC (centres unmarked) [Example 73, 1-(3-(3,4-dimethoxyphenyl)-5-(1,3-diphenyl-1H-pyrazol-4-yl)-4,5-dihydro-1H-pyrazol-1-yl)ethanone] | < 50 |
| COc1ccc(C2=NN(S(C)(=O)=O)C(c3c(F)cccc3Cl)C2)cc1OC (centres unmarked) [Example 3, 5-(2-chloro-6-fluorophenyl)-3-(3,4-dimethoxyphenyl)-1-(methylsulfonyl)-4,5-dihydro-1H-pyrazole] | < 50 |
| COc1ccc(C2=NN(C(=O)c3cc(OC)c(OC)c(OC)c3)C(c3ccc(Cl)cc3)C2)cc1OC (centres unmarked) [Example 43, (5-(4-chlorophenyl)-3-(3,4-dimethoxyphenyl)-4,5-dihydro-1H-pyrazol-1-yl)(3,4,5-trimethoxyphenyl)methanone] | ≥ 50 |
| COc1ccc2nc(Cl)c(C3CC(c4ccc(OC)c(OC)c4)=NN3C(=O)c3ccco3)cc2c1 (centres unmarked) [Example 9, (5-(2-chloro-6-methoxyquinolin-3-yl)-3-(3,4-dimethoxyphenyl)-4,5-dihydro-1H-pyrazol-1-yl)(furan-2-yl)methanone] | < 50 |
| COc1cccc(C2CC(c3ccc(OC)c(OC)c3)=NN2S(C)(=O)=O)c1 (centres unmarked) [Example 4, 3-(3,4-dimethoxyphenyl)-5-(3-methoxyphenyl)-1-(methylsulfonyl)-4,5-dihydro-1H-pyrazole] | < 50 |
| COc1ccc(C2=NN(S(C)(=O)=O)C(c3cccs3)C2)cc1OC (centres unmarked) [Example 2, 3-(3,4-dimethoxyphenyl)-1-(methylsulfonyl)-5-(thiophen-2-yl)-4,5-dihydro-1H-pyrazole] | < 50 |
| COc1ccc(C2CC(c3ccc(OC)c(OC)c3)=NN2C(=O)CCC(=O)O)cc1 (centres unmarked) [Example 97, 4-(3-(3,4-dimethoxyphenyl)-5-(4-methoxyphenyl)-4,5-dihydro-1H-pyrazol-1-yl)-4-oxobutanoic acid] | < 50 |
| COc1ccc(OC)c(C2CC(c3ccc(OC)c(OC)c3)=NN2S(=O)(=O)c2ccccc2)c1 (centres unmarked) [Example 88, 5-(2,5-dimethoxyphenyl)-3-(3,4-dimethoxyphenyl)-1-(phenylsulfonyl)-4,5-dihydro-1H-pyrazole] | < 50 |
| COc1ccc(C2=NN(S(=O)(=O)c3ccccc3)C(c3cccc(OC)c3OC)C2)cc1OC (centres unmarked) [Example 90, 5-(2,3-dimethoxyphenyl)-3-(3,4-dimethoxyphenyl)-1-(phenylsulfonyl)-4,5-dihydro-1H-pyrazole] | < 50 |
| CCC(=O)N1N=C(c2ccc(OC)c(OC)c2)CC1c1cc2cc(OC)ccc2nc1Cl (centres unmarked) [Example 8, 1-(5-(2-chloro-6-methoxyquinolin-3-yl)-3-(3,4-dimethoxyphenyl)-4,5-dihydro-1H-pyrazol-1-yl)propan-1-one] | < 50 |
| COc1ccc(C2=NN(S(C)(=O)=O)C(c3ccccc3Cl)C2)cc1OC (centres unmarked) [Example 15, 5-(2-chlorophenyl)-3-(3,4-dimethoxyphenyl)-1-(methylsulfonyl)-4,5-dihydro-1H-pyrazole] | < 50 |
| CCc1ccc(C2CC(c3ccc(OC)c(OC)c3)=NN2S(C)(=O)=O)cc1 (centres unmarked) [Example 12, 3-(3,4-dimethoxyphenyl)-5-(4-ethylphenyl)-1-(methylsulfonyl)-4,5-dihydro-1H-pyrazole] | < 50 |
| COc1ccc(C2=NN(S(=O)(=O)c3ccccc3)C(c3ccc(OC)c(OC)c3)C2)cc1OC (centres unmarked) [Example 86, 3,5-bis(3,4-dimethoxyphenyl)-1-(phenylsulfonyl)-4,5-dihydro-1H-pyrazole] | ≥ 50 |
| COc1ccc(C2=NN(C(=O)CCCC(=O)O)C(c3ccc(Cl)cc3)C2)cc1OC (centres unmarked) [Example 95, 5-(5-(4-chlorophenyl)-3-(3,4-dimethoxyphenyl)-4,5-dihydro-1H-pyrazol-1-yl)-5-oxopentanoic acid] | < 50 |
| COc1ccc(C2=NN(C(=O)CCCC(=O)O)C(c3ccccc3Cl)C2)cc1OC (centres unmarked) [Example 67, 5-(5-(2-chlorophenyl)-3-(3,4-dimethoxyphenyl)-4,5-dihydro-1H-pyrazol-1-yl)-5-oxopentanoic acid] | < 50 |
| COc1ccc(C2=NN(C(=O)CCC(=O)O)C(c3cc4cccc(C)c4nc3Cl)C2)cc1OC (centres unmarked) [Example 5, 4-(5-(2-chloro-8-methylquinolin-3-yl)-3-(3,4-dimethoxyphenyl)-4,5-dihydro-1H-pyrazol-1-yl)-4-oxobutanoic acid] | < 50 |
| COc1ccc(C2=NN(C(=O)CCC(=O)O)C(c3ccccc3OC)C2)cc1OC (centres unmarked) [Example 98, 4-(3-(3,4-dimethoxyphenyl)-5-(2-methoxyphenyl)-4,5-dihydro-1H-pyrazol-1-yl)-4-oxobutanoic acid] | < 50 |

Second part, the molecule after the results:

| inhibition at 10 µM [%] | SMILES |
| --- | --- |
| < 50 | COc1ccc(C2=NN(S(=O)(=O)c3ccccc3)C(c3ccccc3Cl)C2)cc1OC (centres unmarked) [Example 59, 5-(2-chlorophenyl)-3-(3,4-dimethoxyphenyl)-1-(phenylsulfonyl)-4,5-dihydro-1H-pyrazole] |
| < 50 | CCc1ccc(C2CC(c3ccc(OC)c(OC)c3)=NN2C(C)=O)cc1 (centres unmarked) [Example 21, 1-(3-(3,4-dimethoxyphenyl)-5-(4-ethylphenyl)-4,5-dihydro-1H-pyrazol-1-yl)ethanone] |
| ≥ 50 | COc1ccc(C2CC(c3ccc(OC)c(OC)c3)=NN2C(=O)c2ccccc2)cc1 (centres unmarked) [Example 36, (3-(3,4-dimethoxyphenyl)-5-(4-methoxyphenyl)-4,5-dihydro-1H-pyrazol-1-yl)(phenyl)methanone] |
| < 50 | COc1ccc(C2=NN(S(=O)(=O)c3ccc(C)cc3)C(c3ccccc3)C2)cc1OC (centres unmarked) [Example 62, 3-(3,4-dimethoxyphenyl)-5-phenyl-1-tosyl-4,5-dihydro-1H-pyrazole] |
| < 50 | COc1ccc(C2=NN(C(=O)c3ccccc3Cl)C(c3ccc(C)cc3)C2)cc1OC (centres unmarked) [Example 32, (2-chlorophenyl)(3-(3,4-dimethoxyphenyl)-5-p-tolyl-4,5-dihydro-1H-pyrazol-1-yl)methanone] |
| < 50 | COc1ccc2nc(Cl)c(C3CC(c4ccc(OC)c(OC)c4)=NN3C(=O)c3ccccc3Cl)cc2c1 (centres unmarked) [Example 6, (5-(2-chloro-6-methoxyquinolin-3-yl)-3-(3,4-dimethoxyphenyl)-4,5-dihydro-1H-pyrazol-1-yl)(2-chlorophenyl)methanone] |
| < 50 | COc1ccc(C2=NN(S(=O)(=O)c3ccccc3)C(c3ccc(C)cc3)C2)cc1OC (centres unmarked) [Example 56, 3-(3,4-dimethoxyphenyl)-1-(phenylsulfonyl)-5-p-tolyl-4,5-dihydro-1H-pyrazole] |
| < 50 | COc1ccc(C2CC(c3ccc(OC)c(OC)c3)=NN2C(C)=O)cc1 (centres unmarked) [Example 103, 1-(3-(3,4-dimethoxyphenyl)-5-(4-methoxyphenyl)-4,5-dihydro-1H-pyrazol-1-yl)ethanone] |
| < 50 | COc1ccc(C2=NN(C(C)=O)C(c3ccccc3F)C2)cc1OC (centres unmarked) [Example 104, 1-(3-(3,4-dimethoxyphenyl)-5-(2-fluorophenyl)-4,5-dihydro-1H-pyrazol-1-yl)ethanone] |
| < 50 | COc1ccc(C2=NN(C(C)=O)C(c3ccccc3)C2)cc1OC (centres unmarked) [Example 106, 1-(3-(3,4-dimethoxyphenyl)-5-phenyl-4,5-dihydro-1H-pyrazol-1-yl)ethanone] |
| < 50 | COc1ccc(C2=NN(C(=O)CCC(=O)O)C(c3ccc(C)cc3)C2)cc1OC (centres unmarked) [Example 71, 4-(3-(3,4-dimethoxyphenyl)-5-p-tolyl-4,5-dihydro-1H-pyrazol-1-yl)-4-oxobutanoic acid] |
| < 50 | COc1ccc2nc(Cl)c(C3CC(c4ccc(OC)c(OC)c4)=NN3C(=O)c3ccccc3)cc2c1 (centres unmarked) [Example 7, (5-(2-chloro-6-methoxyquinolin-3-yl)-3-(3,4-dimethoxyphenyl)-4,5-dihydro-1H-pyrazol-1-yl)(phenyl)methanone] |
| < 50 | COc1ccc(OC)c(C2CC(c3ccc(OC)c(OC)c3)=NN2C(=O)c2ccccc2Cl)c1 (centres unmarked) [Example 29, (2-chlorophenyl)(5-(2,5-dimethoxyphenyl)-3-(3,4-dimethoxyphenyl)-4,5-dihydro-1H-pyrazol-1-yl)methanone] |
| ≥ 50 | COc1ccc(C2=NN(C(=O)c3cc(OC)c(OC)c(OC)c3)C(c3ccc(C)cc3)C2)cc1OC (centres unmarked) [Example 45, (3-(3,4-dimethoxyphenyl)-5-p-tolyl-4,5-dihydro-1H-pyrazol-1-yl)(3,4,5-trimethoxyphenyl)methanone] |
| < 50 | COc1ccc(C2=NN(C(=O)CCC(=O)O)C(c3ccc(Cl)cc3)C2)cc1OC (centres unmarked) [Example 70, 4-(5-(4-chlorophenyl)-3-(3,4-dimethoxyphenyl)-4,5-dihydro-1H-pyrazol-1-yl)-4-oxobutanoic acid] |
| < 50 | COc1ccc(C2=NN(S(=O)(=O)c3ccc(C)cc3)C(c3cccc([N+](=O)[O-])c3)C2)cc1OC (centres unmarked) [Example 52, 3-(3,4-dimethoxyphenyl)-5-(3-nitrophenyl)-1-tosyl-4,5-dihydro-1H-pyrazole] |
